{"source": "patent US5284947A", "about": "“Multiple drug resistance-attenuating compounds” (Abbott Laboratories, priority 1992, dated 1994)", "key": {"[1]": {"system": "certain mammalian target cells", "conditions": "known compounds; cited from earlier work"}, "[2]": {"system": "KB V1 cells (multiple drug resistant)", "assay": "Chemosensitization (cytotoxicity) assay of multiple drug resistant cells, MTT", "type": "cell-based", "conditions": "Homo sapiens, KB-V1, 72 h", "procedure": "(§1) Cytotoxicity assays to determine 50% inhibition of growth (IC50) were done in 96-well tissue culture microtiter trays (Costar, Cambridge, Mass.). Cell growth was determined as follows: KB 3-1 (sensitive) and KB V1 (multiple drug resistant) cells grown in Dulbecco's modified Eagle medium (Gibco BRL, Division of Life Technologies, Inc., Grand Island, N.Y.) were added to each microtiter well at 1×10^4 cells in 200 μL of growth medium in the presence and absence of verapamil, 5-acetylardeemin and 5-acetyl-15b-β-hydroxyardeemin at […]. Anticancer cytotoxic agents adriamycin (ADR), vinblastine (VBL) and vincristine (VCR) (Sigma, St. Louis, Mo.) were added in final concentrations ranging from 0.0001 to 10 μg/mL. Cells were incubated at 37° C. in a humidified atmosphere of 4% CO2 for 72 hours. Cell growth was measured by the reduction of 3-(4,5-dimethyl-thiazol-2-yl)-2,5-diphenyltetrazolium bromide (MTT), added to each well at 0.1 mg/mL. The plates were incubated at 37° C. in humidified 4% CO2 for 3 hours. The trays were spun at 1000×g for 10 minutes, the supernatant removed by aspiration and the residual formazan reduction product dissolved in 100 μL of DMSO. Growth was quantitated by measuring the optical absorbance in each well at 570 nm in a microtiter plate reader."}, "KB 3-1 cells (sensitive)": {"system": "KB 3-1 cells (sensitive)", "assay": "Cytotoxicity assay in drug-sensitive cells, MTT", "type": "cell-based", "conditions": "Homo sapiens, modulator: none, 72 hours", "procedure": "as §1"}}, "note": "Read-outs that look alike come from different tables or passages of the source.", "data": [{"smiles": "CCC1=C[C@@H]2CN3CCc4c([nH]c5ccccc45)[C@@](C(=O)OC)(C2)[C@@H]13", "note": "[catharanthine]", "values": [{"measurement": "attenuation of drug resistance", "setting": "[1]", "value": "attenuate, if not reverse, drug resistance in certain mammalian target cells"}]}, {"smiles": "CC[C@]1(O)C[C@@H]2CN(CCc3c([nH]c4ccccc34)[C@@](C(=O)OC)(c3cc4c(cc3OC)N(C)[C@H]3[C@@](O)(C(=O)OC)[C@H](OC(C)=O)[C@]5(CC)C=CCN6CC[C@]43[C@@H]65)C2)C1", "note": "[VBL, vinblastine]", "values": [{"measurement": "IC50", "setting": "[2]; read-out: VBL-IC50", "value": 1.2, "unit": "µg/mL"}, {"measurement": "IC50", "setting": "KB 3-1 cells (sensitive); read-out: VBL-IC50", "value": 0.001, "unit": "µg/mL"}]}, {"smiles": "CC[C@]1(O)C[C@H]2CN(CCc3c([nH]c4ccccc34)[C@@](C(=O)OC)(c3cc4c(cc3OC)N(C=O)[C@H]3[C@@](O)(C(=O)OC)[C@H](OC(C)=O)[C@]5(CC)C=CCN6CC[C@]43[C@@H]65)C2)C1", "note": "[VCR, vincristine]", "values": [{"measurement": "IC50", "setting": "[2]; read-out: VCR-IC50", "value": 7, "unit": "µg/mL"}, {"measurement": "IC50", "setting": "KB 3-1 cells (sensitive); read-out: VCR-IC50", "value": 0.001, "unit": "µg/mL"}]}, {"smiles": "COc1ccc([C@@H]2Sc3ccccc3N(CCN(C)C)C(=O)[C@@H]2OC(C)=O)cc1", "note": "[diltiazem]", "values": [{"measurement": "attenuation of drug resistance", "setting": "[1]", "value": "attenuate, if not reverse, drug resistance in certain mammalian target cells"}]}, {"smiles": "COc1ccc(CCN(C)CCCC(C#N)(c2ccc(OC)c(OC)c2)C(C)C)cc1OC", "note": "(stereo not drawn) [Verapamil, verapamil]", "values": [{"measurement": "attenuation of drug resistance", "setting": "[1]", "value": "attenuate, if not reverse, drug resistance in certain mammalian target cells"}]}, {"smiles": "COc1cccc2c1C(=O)c1c(O)c3c(c(O)c1C2=O)C[C@@](O)(C(=O)CO)C[C@@H]3O[C@H]1C[C@H](N)[C@H](O)[C@H](C)O1", "note": "[ADR, adriamycin]", "values": [{"measurement": "IC50", "setting": "[2]; read-out: ADR-IC50", "value": 3, "unit": "µg/mL"}, {"measurement": "IC50", "setting": "KB 3-1 cells (sensitive); read-out: ADR-IC50", "value": 0.012, "unit": "µg/mL"}]}]}
